Our source for the Ki and Kd values is patent publication US20020042400A1, “Novel alicyclic imidazoles as H3 agents” (priority 2000, published 2002).

pKd, pKi: −log10 of the molar value. Counter-ions that a name gives are not always drawn. Like-named read-outs stand apart in the source and are kept apart here.

Experiment [1] concerns the target T1, Histamine H3 receptor (Rattus norvegicus, UniProt Q9QYN8). The experiment is described as follows: Histamine H3 receptor competition binding with [^3H]NAMHA in rat cerebral cortical membranes. The procedure:
Histamine H3 receptor affinity was determined in rat cerebral cortical membranes with [^3H]NAMHA as previously described (Tedford et al., 1995). Animals were euthanized by rapid decapitation and cerebral cortical tissues were harvested and frozen on dry ice. Cerebral cortical membranes were prepared in 50 mM sodium-phosphate buffered saline (pH 7.5 at 4° C.) containing: EDTA (10 mM), phenylmethylsulfonyl fluoride (0.1 mM), chymostatin and leupeptin (each 0.2 mg/50 mL). The final membrane pellets were resuspended in water and stored frozen at −80° C. prior to use. Protein concentrations were determined using the Coomassie Plus Protein Assay (Pierce, Rockford Ill.).
Competition binding was carried out in a total volume of 0.2 mL of 50 mM sodium-phosphate buffer (pH 7.4) using ˜1 nM [^3H]NAMHA ([^3H]—N^α-methylhistamine, available from NEN Research Products of Boston, Mass.) and 0.003 to […] concentrations of the test compounds. Non-specific binding was determined using 10 μM thioperamide. Samples were incubated for 40 minutes at 25° C. and subsequently filtered through Whatman GF/C glass fiber filters pre-soaked in binding buffer with 0.3% polyethyleneimine, using an Inotech cell harvester (Inotech Biosystems International, Lansing Mich.). The filters were rapidly washed three times with Tris-NaCl buffer (25 and 145 mM, respectively, pH 7.4, 4° C.). Samples were quantitated using Ecolume scintillation cocktail (ICN Biomedicals; Costa Mesa Calif.) and a Packard model 1900TR liquid scintillation analyzer (Packard Instrument Co., Downers Grove Ill.). IC50 values were extrapolated from a plot of receptor occupancy (i.e. % bound) vs. log [competitor].

Experiment [2] deals with T1, Histamine H3 receptor. As to conditions: radioligand Kd used in the Ki equation; read-out: Kd for [^3H]NAMHA; cited from earlier work.
[3] abbreviates: rat cerebral cortical membranes, ~1 nM [^3H]NAMHA, 40 minutes at 25° C., Ki=IC50/(1+([ligand]/[Kd]), read-out: Ki.

As usually defined, the pKi is the negative decadic logarithm of the Ki, by convention in mol/L. As usually defined, the pKd is the Kd on a negative log10 scale, so that one unit is a factor of ten.

T1 sequence (Q9QYN8 whole entry): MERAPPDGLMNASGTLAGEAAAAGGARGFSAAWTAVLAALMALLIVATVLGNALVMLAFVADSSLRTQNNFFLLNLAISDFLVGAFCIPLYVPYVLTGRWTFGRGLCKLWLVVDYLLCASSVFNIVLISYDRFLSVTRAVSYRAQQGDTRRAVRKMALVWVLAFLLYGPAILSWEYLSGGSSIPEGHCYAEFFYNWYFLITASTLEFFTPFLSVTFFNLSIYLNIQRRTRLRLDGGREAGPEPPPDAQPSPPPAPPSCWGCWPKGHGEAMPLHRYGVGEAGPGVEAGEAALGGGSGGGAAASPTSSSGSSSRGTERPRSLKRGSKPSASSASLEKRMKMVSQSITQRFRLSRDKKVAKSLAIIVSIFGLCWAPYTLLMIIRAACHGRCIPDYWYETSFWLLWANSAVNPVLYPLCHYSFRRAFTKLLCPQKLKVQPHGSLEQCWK

For `NC(=O)[C@@H]1C[C@H]1c1c[nH]cn1` (relative stereo) [Example 2, 4-(trans-2-aminocarbonyl-cyclopropyl) Imidazole Trifluoroacetic Acid Salt], the pKi in experiment [1] (setting [3]) is 6.90. The same measure, in the same setting: as for `OC[C@@H]1C[C@H]1c1c[nH]cn1` (relative stereo) [Example 6, 4-(trans-2-hydroxymethyl-cyclopropyl) Imidazole Trifluoroacetic Acid Salt], the figure is 6.58; as for `O/N=C/C1CC1c1c[nH]cn1` (stereo not drawn) [Example 5, 4-(trans-2-N-hydroxyimino-cyclopropyl) Imidazole], 7.64.

As to `CNCCc1cnc[nH]1` [[^3H]NAMHA, [^3H]—N^α-methylhistamine], in experiment [2], the pKd is 9.40. `N#C[C@@H]1C[C@H]1c1c[nH]cn1` (relative stereo) [Example 1, 4-(trans-2-cyano-cyclopropyl) Imidazole Trifluoroacetic Acid Salt]: the negative logarithm of the Ki (pKi) in experiment [1] (setting [3]) is 7.70. Regarding `NC[C@@H]1C[C@H]1c1c[nH]cn1` (relative stereo) [Example 4, 4-(trans-2-aminomethyl-cyclopropyl) Imidazole Di-hydrochloric Acid Salt], the negative logarithm of the Ki (pKi) in experiment [1] is 8.35. On to `N=C(N)[C@@H]1C[C@H]1c1c[nH]cn1` (relative stereo) [Example 3, 4-(trans-2-amidino-cyclopropyl) Imidazole Di-trifluoroacetic Acid Salt], for which, in experiment [1] (setting [3]), the pKi was 8.17. Take `CNC(=N)[C@@H]1C[C@H]1c1c[nH]cn1` (relative stereo) [Example 7, 4-(trans-2-N-methylamidino-cyclopropyl) Imidazole Di-hydrochloric Acid Salt]: the pKi in experiment [1] (setting [3]) was 6.94.
